PubChem BioAssay AID248 (DTP/NCI, 2004)
Values joined by “and” are separate entries in the source; they are usually repeats but may differ in a detail not shown here. Equal entries are not always repeated. Toxic doses and inconclusive results are not listed.

Test system: L1210 leukemia ip in BDF1 mice, survival T/C
Test: NCI In Vivo Anticancer Drug Screen. Data for tumor model L1210 Leukemia (intraperitoneal) in B6D2F1 (BDF1) mice
Details: endpoint: mean survival time, higher = longer survival
In short: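 Ratio derived from survival: compound-dosed mice over vehicle-dosed mice, all bearing a transplantable tumor.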

[1] = dose: 100.0 mg/kg/injection, schedule: Q04DX003 (ip), vehicle: saline
[2] = dose: 200.0 mg/kg/injection, schedule: Q04DX003 (ip), vehicle: saline
[3] = dose: 400.0 mg/kg/injection, schedule: Q04DX003 (ip), vehicle: saline
[4] = dose: 50.0 mg/kg/injection, schedule: Q01DX001 (ip), vehicle: saline
[5] = dose: 100.0 mg/kg/injection, schedule: Q01DX001 (ip), vehicle: saline
[6] = dose: 200.0 mg/kg/injection, schedule: Q01DX001 (ip), vehicle: saline
[7] = dose: 400.0 mg/kg/injection, schedule: Q01DX001 (ip), vehicle: saline
[8] = dose: 100.0 mg/kg/injection, schedule: Q04DX003 (ip), vehicle: Klucel (hydroxypropylcellulose) (HPC)
[9] = dose: 200.0 mg/kg/injection, schedule: Q04DX003 (ip), vehicle: Klucel (hydroxypropylcellulose) (HPC)
[10] = dose: 400.0 mg/kg/injection, schedule: Q04DX003 (ip), vehicle: Klucel (hydroxypropylcellulose) (HPC)
[11] = dose: 100.0 mg/kg/injection, schedule: Q04DX002 (ip), vehicle: Klucel (hydroxypropylcellulose) (HPC)
[12] = dose: 200.0 mg/kg/injection, schedule: Q04DX002 (ip), vehicle: Klucel (hydroxypropylcellulose) (HPC)
[13] = dose: 400.0 mg/kg/injection, schedule: Q04DX002 (ip), vehicle: Klucel (hydroxypropylcellulose) (HPC)
[14] = dose: 100.0 mg/kg/injection, schedule: Q01DX009 (ip), vehicle: Klucel (hydroxypropylcellulose) (HPC)
[15] = dose: 200.0 mg/kg/injection, schedule: Q01DX009 (ip), vehicle: Klucel (hydroxypropylcellulose) (HPC)
[16] = dose: 400.0 mg/kg/injection, schedule: Q01DX009 (ip), vehicle: Klucel (hydroxypropylcellulose) (HPC)
[17] = dose: 50.0 mg/kg/injection, schedule: Q01DX001 (ip), vehicle: carboxymethylcellulose (CMC)
[18] = dose: 100.0 mg/kg/injection, schedule: Q01DX001 (ip), vehicle: carboxymethylcellulose (CMC)
[19] = dose: 200.0 mg/kg/injection, schedule: Q01DX001 (ip), vehicle: carboxymethylcellulose (CMC)
[20] = dose: 400.0 mg/kg/injection, schedule: Q01DX001 (ip), vehicle: carboxymethylcellulose (CMC)
[21] = dose: 100.0 mg/kg/injection, schedule: Q01DX005 (ip), vehicle: saline
[22] = dose: 200.0 mg/kg/injection, schedule: Q01DX005 (ip), vehicle: saline
[23] = dose: 400.0 mg/kg/injection, schedule: Q01DX005 (ip), vehicle: saline
[24] = dose: 50.0 mg/kg/injection, schedule: Q01DX009 (ip), vehicle: saline with Tween-80

## Cc1nc2[nH]c(=O)[nH]c(=O)c2nc1C
dose: 16.0 mg/kg/injection, schedule: Q01DX Z (ip), vehicle: methylcellulose (MC)
  T/C: 100 % of control
dose: 31.0 mg/kg/injection, schedule: Q01DX Z (ip), vehicle: methylcellulose (MC)
  T/C: 95 % of control
dose: 62.0 mg/kg/injection, schedule: Q01DX Z (ip), vehicle: methylcellulose (MC)
  T/C: 87 % of control
dose: 100.0 mg/kg/injection, schedule: Q01DX001 (ip), vehicle: other
  T/C: 104 % of control
dose: 100.0 mg/kg/injection, schedule: Q04DX003 (ip), vehicle: other
  T/C: 96 % of control
dose: 125.0 mg/kg/injection, schedule: Q01DX Z (ip), vehicle: methylcellulose (MC)
  T/C: 92 % of control and 93 % of control
dose: 200.0 mg/kg/injection, schedule: Q01DX001 (ip), vehicle: other
  T/C: 107 % of control
dose: 200.0 mg/kg/injection, schedule: Q04DX003 (ip), vehicle: other
  T/C: 104 % of control
dose: 250.0 mg/kg/injection, schedule: Q01DX Z (ip), vehicle: methylcellulose (MC)
  T/C: 89 % of control
dose: 400.0 mg/kg/injection, schedule: Q01DX001 (ip), vehicle: other
  T/C: 102 % of control
dose: 400.0 mg/kg/injection, schedule: Q04DX003 (ip), vehicle: other
  T/C: 96 % of control
dose: 500.0 mg/kg/injection, schedule: Q01DX Z (ip), vehicle: methylcellulose (MC)
  T/C: 89 % of control

## COc1cc2ccc(CC(=O)NCc3ccccc3)cc2cc1OC
dose: 100.0 mg/kg/injection, schedule: Q01DX009 (ip), vehicle: saline
  T/C: 94 % of control
[1]
  T/C: 91 % of control
dose: 200.0 mg/kg/injection, schedule: Q01DX009 (ip), vehicle: saline
  T/C: 89 % of control
[2]
  T/C: 86 % of control
dose: 400.0 mg/kg/injection, schedule: Q01DX009 (ip), vehicle: saline
  T/C: 101 % of control
[3]
  T/C: 101 % of control

## O=c1cc(/C=N\Nc2ccc([N+](=O)[O-])cc2)[nH]c(=O)[nH]1
[4]
  T/C: 106 % of control
[5]
  T/C: 95 % of control
[6]
  T/C: 101 % of control
[7]
  T/C: 90 % of control

## Clc1ccc(-c2nc3ccccc3cc2N2CCOCC2)cc1
[8]
  T/C: 108 % of control
[9]
  T/C: 103 % of control
[10]
  T/C: 100 % of control

## CCNC(=O)OCC1C2CCC(O2)C1COC(=O)NCC (centres undefined)
[11]
  T/C: 101 % of control
[12]
  T/C: 98 % of control
[13]
  T/C: 98 % of control

## COC(=O)CC(O)(CC(=O)OC)C(=O)OC
[14]
  T/C: 93 % of control
[15]
  T/C: 104 % of control
[16]
  T/C: 93 % of control

## CC(=O)c1ccc(Oc2ccc(C(C)=O)cc2)cc1
[17]
  T/C: 103 % of control
[18]
  T/C: 105 % of control
[11]
  T/C: 106 % of control
[19]
  T/C: 92 % of control
[12]
  T/C: 102 % of control
[20]
  T/C: 92 % of control
[13]
  T/C: 91 % of control

## CCOC(=O)C1=C(C#N)C(C(=O)OCC)c2ncccc21 (centres undefined)
dose: 50.0 mg/kg/injection, schedule: Q01DX005 (ip), vehicle: saline
  T/C: 97 % of control
[21]
  T/C: 88 % of control
[22]
  T/C: 87 % of control
[23]
  T/C: 95 % of control

## O=C(Nc1c(Cl)c(Cl)c2c(c1Cl)Cc1cc(Cl)ccc1-2)C(Cl)Cl
[18]
  T/C: 101 % of control
[19]
  T/C: 101 % of control
[20]
  T/C: 106 % of control

## Cc1[nH]c(=O)[nH]c(=O)c1[N+](=O)[O-]
[14]
  T/C: 94 % of control
[8]
  T/C: 102 % of control
[15]
  T/C: 101 % of control
[9]
  T/C: 104 % of control
[16]
  T/C: 87 % of control
[10]
  T/C: 102 % of control

## COC(=N)c1nn(C2OC(CO)C(O)C2O)c2ncnc(N)c12 (centres undefined)
[21]
  T/C: 115 % of control
[22]
  T/C: 153 % of control
[23]
  T/C: 164 % of control

## CC(=O)N(N=Nc1ccc(Cl)cc1)c1ccc(Cl)cc1
[24]
  T/C: 98 % of control
dose: 100.0 mg/kg/injection, schedule: Q01DX009 (ip), vehicle: saline with Tween-80
  T/C: 98 % of control
dose: 200.0 mg/kg/injection, schedule: Q01DX009 (ip), vehicle: saline with Tween-80
  T/C: 98 % of control

## CCOC(=O)c1ccc(OC(=O)Nc2ccc(F)cc2)cc1
[17]
  T/C: 106 % of control
dose: 50.0 mg/kg/injection, schedule: Q01DX009 (ip), vehicle: carboxymethylcellulose (CMC)
  T/C: 96 % of control and 105 % of control
dose: 50.0 mg/kg/injection, schedule: Q04DX002 (ip), vehicle: carboxymethylcellulose (CMC)
  T/C: 95 % of control and 103 % of control
[18]
  T/C: 104 % of control
dose: 100.0 mg/kg/injection, schedule: Q01DX009 (ip), vehicle: carboxymethylcellulose (CMC)
  T/C: 95 % of control and 99 % of control
dose: 100.0 mg/kg/injection, schedule: Q04DX002 (ip), vehicle: carboxymethylcellulose (CMC)
  T/C: 95 % of control and 107 % of control
[19]
  T/C: 101 % of control
dose: 200.0 mg/kg/injection, schedule: Q01DX009 (ip), vehicle: carboxymethylcellulose (CMC)
  T/C: 94 % of control
dose: 200.0 mg/kg/injection, schedule: Q04DX002 (ip), vehicle: carboxymethylcellulose (CMC)
  T/C: 103 % of control and 88 % of control

## COc1cc2c(c(O)c1OC)c(=O)c1ccccc1n2C
dose: 60.0 mg/kg/injection, schedule: Q01DX Z (ip), vehicle: carboxymethylcellulose (CMC)
  T/C: 103 % of control
dose: 120.0 mg/kg/injection, schedule: Q01DX Z (ip), vehicle: carboxymethylcellulose (CMC)
  T/C: 102 % of control
dose: 240.0 mg/kg/injection, schedule: Q01DX Z (ip), vehicle: carboxymethylcellulose (CMC)
  T/C: 97 % of control

## O=C(O)c1cc2cc(Cl)ccc2oc1=O
[18]
  T/C: 92 % of control
[19]
  T/C: 92 % of control

## NC(=O)N1c2ccccc2C=Cc2ccccc21
dose: 12.5 mg/kg/injection, schedule: Q01DX009 (ip), vehicle: Klucel (hydroxypropylcellulose) (HPC)
  T/C: 93 % of control
dose: 25.0 mg/kg/injection, schedule: Q01DX009 (ip), vehicle: Klucel (hydroxypropylcellulose) (HPC)
  T/C: 93 % of control
dose: 50.0 mg/kg/injection, schedule: Q01DX009 (ip), vehicle: Klucel (hydroxypropylcellulose) (HPC)
  T/C: 96 % of control
[14]
  T/C: 89 % of control
[11]
  T/C: 103 % of control
[15]
  T/C: 94 % of control
[12]
  T/C: 110 % of control
[13]
  T/C: 110 % of control

## Nc1ncc(CCCOc2ccccc2)c(=O)[nH]1
dose: 100.0 mg/kg/injection, schedule: Q04DX003 (ip), vehicle: saline with Tween-80
  T/C: 96 % of control
dose: 200.0 mg/kg/injection, schedule: Q04DX003 (ip), vehicle: saline with Tween-80
  T/C: 98 % of control
dose: 400.0 mg/kg/injection, schedule: Q04DX003 (ip), vehicle: saline with Tween-80
  T/C: 93 % of control

## C(/CCC/C=N/Nc1ccccc1)=N\Nc1ccccc1
[4]
  T/C: 103 % of control
[5]
  T/C: 100 % of control
[6]
  T/C: 109 % of control
[7]
  T/C: 100 % of control

## Nc1ncnc2c1nc(Br)n2C1OC(CO)C(O)C1O (centres undefined)
[1]
  T/C: 97 % of control
[2]
  T/C: 101 % of control
[3]
  T/C: 101 % of control

## CNC(=O)Oc1cccc(C)c1
dose: 25.0 mg/kg/injection, schedule: Q01DX009 (ip), vehicle: saline with Tween-80
  T/C: 97 % of control
[24]
  T/C: 94 % of control

## O=C1Sc2ccccc2C1=O
[5]
  T/C: 94 % of control
[8]
  T/C: 91 % of control
[6]
  T/C: 103 % of control
[9]
  T/C: 94 % of control
[10]
  T/C: 102 % of control

## CCOc1ccc(N=Nc2c(O)n(-c3ccccc3OC)c(=S)n(-c3ccccc3OC)c2=O)cc1
dose: 75.0 mg/kg/injection, schedule: Q01DX003 (ip), vehicle: Klucel (hydroxypropylcellulose) (HPC)
  T/C: 96 % of control
dose: 100.0 mg/kg/injection, schedule: Q01DX003 (ip), vehicle: Klucel (hydroxypropylcellulose) (HPC)
  T/C: 96 % of control
dose: 200.0 mg/kg/injection, schedule: Q01DX003 (ip), vehicle: Klucel (hydroxypropylcellulose) (HPC)
  T/C: 91 % of control
